Measurements as given in patent US20050165057A1, “Novel piperidine derivative” (priority 2002, published 2005).

Experiments:
ACAT [1] = experiment: Assay of ACAT inhibitory activity using Caco-2 cells; type: cell-based, human; conditions: concentration of compound: 500 nM
Procedure: 1. Assay of ACAT Inhibitory Activity Using Caco-2 Cells Derived from Human Colon Adenocarcinoma:
The measurement of ACAT inhibitory activity using Caco-2 cells was carried out by a modified method of that disclosed in the literature (J. Lipid. Research, 28, 1057-1066, 1987, Jpn. J. Pharmacol., 68, 191-199, 1995), using radioactive [1-^3H]oleic acid as a substrate, and the enzymatic activity was calculated from the radioactivity of the resultant labeled cholesterolyl oleate.

ACAT [2] = target: T1, ACAT (Rattus norvegicus, UniProt O70536); experiment: Assay of ACAT inhibitory activity in a macrophage derived from rat peritoneal cavity; type: cell-based; conditions: concentration of compound: 500 nM
T1 construct: The rat peritoneal-derived macrophage was prepared according to the method disclosed in the literature; endogenous in cells; host or cells: rat peritoneal macrophages (primary cells)
T1 sequence (O70536 1-545): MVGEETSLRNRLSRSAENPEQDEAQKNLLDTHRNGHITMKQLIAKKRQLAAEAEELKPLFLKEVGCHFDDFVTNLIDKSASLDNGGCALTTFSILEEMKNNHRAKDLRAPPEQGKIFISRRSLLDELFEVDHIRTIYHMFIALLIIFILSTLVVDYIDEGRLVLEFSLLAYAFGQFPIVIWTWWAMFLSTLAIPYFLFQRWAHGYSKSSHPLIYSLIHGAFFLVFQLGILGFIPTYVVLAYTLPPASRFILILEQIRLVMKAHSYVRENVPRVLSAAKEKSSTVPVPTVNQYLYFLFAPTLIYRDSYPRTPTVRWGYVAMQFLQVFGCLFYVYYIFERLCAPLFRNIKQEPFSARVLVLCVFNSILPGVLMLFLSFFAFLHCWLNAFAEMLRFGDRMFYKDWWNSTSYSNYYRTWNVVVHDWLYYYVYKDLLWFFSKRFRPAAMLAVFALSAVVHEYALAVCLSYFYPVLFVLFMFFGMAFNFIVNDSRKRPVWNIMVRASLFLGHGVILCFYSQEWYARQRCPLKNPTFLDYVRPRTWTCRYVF
Procedure: 2. Assay of ACAT Inhibitory Activity in a Macrophage Derived from Rat Peritoneal Cavity:
The rat peritoneal-derived macrophage was prepared according to the method disclosed in the literature: Biochimica et Biophysica Acta, 1126, 73-80, 1992. The ACAT activity was determined by a modified method of the method disclosed in the above literature: Biochimica et Biophysica Acta, 1126, 73-80, 1992, using radioactive [9, 10-^3H]oleic acid and exogenous cholesterol contained in the liposome which was re-constituted according to the method disclosed in the literature: Biochimica et Biophysica Acta, 1213, 127-134, 1994, and calculated from the radioactivity of the labeled cholesterolyl oleate.

SMILES	ACAT inhibitory rate (%) (ACAT [1])	ACAT inhibitory rate (%) (ACAT [2])
COc1cccc(C2(CNC(=O)Nc3c(C(C)C)cc(N)cc3C(C)C)CCN(c3cccc(C)c3)CC2)c1 [Example 12-2, N-{[1-(3-methylphenyl)-4-(3-methoxyphenyl)piperidin-4-yl]methyl}-N′-(4-amino-2,6-diisopropylphenyl)urea]	59	99
CC(C)c1cc(N)cc(C(C)C)c1NC(=O)NCC1(c2cccc(OCCCNC(=O)CC(F)(F)F)c2)CCN(c2ccccc2)CC1 [Example 11-1, N-{(1-phenyl-4-{3-[3-(2,2,2-trifluoroethyl)carbonylaminopropoxy]phenyl}piperidin-4-yl)methyl}-N′-(4-amino-2,6-diisopropylphenyl)urea]	57	99
COc1cccc(C2(CNC(=O)Nc3c(C(C)C)cc(N)cc3C(C)C)CCN(c3cccc(F)c3)CC2)c1 [Example 12-3, N-{[1-(3-fluorophenyl)-4-(3-methoxyphenyl)piperidin-4-yl]methyl}-N′-(4-amino-2,6-diisopropylphenyl)urea]	63	99
